Experimental data published in patent publication US12338261B2 (SUMITOMO PHARMA ONCOLOGY, INC., priority 2015, dated 2025).
“And” between values parts separate entries of the source, which are not always exact repeats. Identical values can stand only once. Like-named read-outs stand apart in the source and are kept apart here.

Assays:
[1] = assay type: in vitro ADME, mouse; conditions: mouse, plasma
Procedure: (§1) The plasma stability of compound IB′ was determined using plasma from four species. Results for mouse, rat, dog and human are shown in Tables 5, 6, 7 and 8 respectively. Alvocidib and flumazenil were used as controls. In mouse, rat and human plasma, compound IB′ maintained 100% stability after 5 hour incubation. In dog plasma, approximately 90% of compound IB′ remained after 5 hours.

[2] = assay type: in vitro ADME, rat; conditions: rat, plasma
Procedure: as §1

Dog plasma stability = assay type: in vitro ADME; conditions: dog plasma
Procedure: as §1

Human plasma stability = assay type: in vitro ADME; conditions: human plasma
Procedure: The plasma stability of compound IB′ was determined using plasma from four species.

[3] = Pharmacokinetics in Sprague Dawley rats; assay type: in vivo, rat; conditions: SD rats; for concentration at 0.5 h: 0.50 hr
Procedure: Plasma samples were taken at 8 time-points (IV) or 7 time points (oral) over a 24 hour period following a single dose of compound IB′ (3 animals per group). […] The plasma samples were also analyzed for the presence of compound IB′.

[4] = for MTDacute: female SHO SCID mice; for Body weight loss, peak: surviving mice
Procedure: Acute studies were performed in female SHO SCID mice using three animals per treatment group. […] Body weight measurements following oral dosing (FIGS. 2A-B) and intravenous (IV) dosing (FIG. 2C-D) were used, along with mortality and clinical observations to determine the maximum tolerated acute dose (MTDacute).

[5] = Procedure: Repeat dose toxicology studies were performed in female SHO SCID mice using 3 animals per treatment group. […] Body weight measurements of animals treated by oral (see FIGS. 3A-B) and intravenous (see FIG. 3C-D) dosing over the course of the 5-day repeat dosing period and subsequent 5-day observation period, along with mortality and clinical observations, were used to determine the maximum tolerated dosing schedule (MTDrepeat).
[6] = test system: MV4-11 mouse xenograft model of acute myeloid leukemia (AML); test: Mouse xenograft efficacy study; assay type: in vivo; conditions: MV4-11 xenograft
Procedure: The in vivo activity of compound IB′ was determined in a MV4-11 mouse xenograft model of acute myeloid leukemia (AML). Injection of 8×10^6 MV4-11 cells/mouse was followed by growth of tumors to approximately 100 mm^3. After tumors reached the appropriate size, mice were randomized into the following treatment groups: Vehicle, compound IB′ (7.5 mg/kg, qdx5x3), compound IB′ (2.5 mg/kg, qdx5x3), compound IB′ (0.1 mg/kg, qdx5x3) and […]. Vehicle and compound IB′ were administered orally, except in the last arm of compound IB′ (7.5 mg/kg, q7dx3), which was dosed intravenously.

[7] = CD-1, mouse, in vivo
physchem = conditions: kinetic from dmso stock
[8] = Maximum tolerated acute dose in rats
Procedure: Acute (i.e. single dose) toxicology studies were performed in rats. Acute studies were performed in female Sprague Dawley rats using three animals per treatment group. […] Body weight measurements following oral dosing (see FIG. 4A), along with mortality, clinical observations, food consumption (see FIG. 4B), and complete blood counts (CBCs; see Table 12) were used to determine the maximum tolerated acute dose (MTDacute).

[9] = male, Sprague Dawley, rat, plasma, IV 1 mg/kg, read-out: Plasma concentration of compound IB′ itself
[10] = male, Sprague Dawley, rat, plasma, PO 10 mg/kg, read-out: Plasma concentration of compound IB′ itself
[11] = rats, single oral dose 4.5 mg/kg
[12] = rats, single oral dose 18 mg/kg

With `CN1CC[C@H](c2c(OP(=O)(O)O)cc(O)c3c(=O)cc(-c4ccccc4Cl)oc23)[C@H](O)C1` [Compound IB′, 2-(2-chlorophenyl)-5-hydroxy-8-(3-hydroxy-1-methylpiperidin-4-yl)-4-oxo-4H-chromen-7-yl dihydrogen phosphate] the “% Remaining” value ([1]; 0 h) was 100.00%, the “% Remaining” value ([1]; 0.5 h) was 88.48% and the “% Remaining” value ([1]; 1 h) was 89.83%. The “% Remaining” value ([1]; 2 h) was 97.71%, the “% Remaining” value ([1]; 3 h) was 99.61% and the “% Remaining” value ([1]; 4 h) was 100.46%. For the same compound, the “% Remaining” value ([2]; 0 h) was 100.00%, the “% Remaining” value ([2]; 0.5 h) was 97.39% and the “% Remaining” value ([2]; 1 h) was 94.60%. For the same compound, the “% Remaining” value ([2]; 2 h) was 100.04%, the “% Remaining” value ([2]; 3 h) was 107.48% and the “% Remaining” value ([2]; 4 h) was 100.20%. For the same compound, the “% Remaining” value (Dog plasma stability; 0 hours) was 100.00%, the “% Remaining” value (Dog plasma stability; 0.5 hours) was 83.66% and the “% Remaining” value (Dog plasma stability; 1 hour) was 94.53%. The “% Remaining” value (Dog plasma stability; 2 hours) was 112.61%, the “% Remaining” value (Dog plasma stability; 3 hours) was 99.16% and the “% Remaining” value (Dog plasma stability; 4 hours) was 93.91%. For the same compound, the “% Remaining” value (Human plasma stability; 0 hours) was 100.00%, the “% Remaining” value (Human plasma stability; 0.5 hours) was 96.32% and the “% Remaining” value (Human plasma stability; 1 hour) was 88.01%. For the same compound, the “% Remaining” value (Human plasma stability; 2 hours) was 104.22%, the “% Remaining” value (Human plasma stability; 3 hours) was 102.59% and the “% Remaining” value (Human plasma stability; 4 hours) was 94.36%. For the same compound, the “% Remaining” value (Human plasma stability; 5 hours) was 100% and 100.26%, the “Plasma concentration of compound IB′ itself” value (“Plasma concentration” below) ([3]; IV 1 mg/kg, 2.00 hr, 1 mg/kg) was “below quantitative levels and BQL” and the “Plasma concentration” value ([3]; IV 1 mg/kg, 4.00 hr) was “BQL”. The “Plasma concentration” value ([3]; IV 1 mg/kg, 6.00 hr) was “BQL”, the “Plasma concentration” value ([3]; IV 1 mg/kg, 8.00 hr) was “BQL” and the “Plasma concentration” value ([3]; IV 1 mg/kg, 24.00 hr) was “BQL”. The “Plasma concentration” value ([3]; PO 10 mg/kg, 2.00 hr, 10 mg/kg) was “below quantitative levels and BQL”, the “Plasma concentration” value ([3]; PO 10 mg/kg, 4.00 hr) was “BQL” and the “Plasma concentration” value ([3]; PO 10 mg/kg, 6.00 hr) was “BQL”. For the same compound, the “Plasma concentration” value ([3]; PO 10 mg/kg, 8.00 hr) was “BQL”, the “Plasma concentration” value ([3]; PO 10 mg/kg, 24.00 hr) was “BQL” and the concentration at 0.083 h ([3]; male, Sprague Dawley, rat, plasma, IV 1 mg/kg, 0.083 hr, read-out: Plasma concentration of compound IB′ itself) was 430 ng/mL. The concentration at 0.25 h [3, 9] was 82 ng/mL, the concentration at 0.5 h [3, 9] was 24.6 ng/mL and the concentration at 1 h [3, 9] was 9.3 ng/mL. For the same compound, the concentration at 0.25 h [3, 10] was 30 ng/mL, the concentration at 0.5 h [3, 10] was 20.4 ng/mL and the concentration at 1 h [3, 10] was 9.3 ng/mL. The MTDacute ([4]; single dose, dosed intravenously) was 15 mg/kg, the MTDacute ([4]; single dose, dosed orally) was 15 mg/kg and the “Minor body weight loss, peak” value ([4]; mice, 15 mg/kg intravenous dosing group, single dose) was 3.3%. For the same compound, the clinical observations ([4]; mice, single dose 30 mg/kg and 45 mg/kg) was “Body weight loss and increased lethargy were observed”, the overt toxicity ([4]; mice, single dose orally or intravenously at 15 mg/kg or 7.5 mg/kg) was “No overt toxicity was observed” and the mortality ([4]; mice, single intravenous dose 30 mg/kg) was “one animal died on day three”. For the same compound, the mortality ([4]; mice, single intravenous dose 45 mg/kg) was “two animals died on day two”, the mortality ([4]; mice, single oral dose 30 mg/kg) was “one animal died on day four” and the mortality ([4]; mice, single oral dose 45 mg/kg) was “one animal died on day two and one animal died on day three”. The “Body weight loss, peak” value ([4]; single dose intravenously) was 12%, the “Body weight loss, peak” value ([4]; single oral dose, 30 mg/kg group) was 17% and the MTDrepeat ([5]; female SHO SCID mice, five daily doses, dosed intravenously) was 15 mg/kg. For the same compound, the overt toxicity ([5]; mice, five daily doses, orally 7.5 or 2.5 mg/kg, or any dose level intravenously) was “No overt toxicity was observed”, the mortality ([5]; mice, five daily oral doses 15 mg/kg) was “one animal died on day 5, and one animal died on day 7” and the “Body weight loss, peak” value ([5]; surviving mice, five daily oral doses 15 mg/kg) was 12%. The “Tumor Growth Inhibition” value ([6]; 2.5 mg/kg, qdx5x3, orally) was 12%, the “Tumor Growth Inhibition” value ([6]; 7.5 mg/kg, q7dx3, intravenously) was 74% and the “Tumor Growth Inhibition” value ([6]; 7.5 mg/kg, qdx5x3, orally) was 69%. It also gave a Bioavail. [7] of 182.3 ± 20.0 % F, a solubility kinetic (physchem; pH 2.2, aqueous buffer) of over 1000 µg/mL and a solubility (physchem; pH 2.2, aqueous buffer, Solubility) of 1900 µg/mL. It also gave a solubility kinetic (physchem; pH 6.8, aqueous buffer) of over 5000 µg/mL, a solubility kinetic (physchem; pH 8.7, aqueous buffer) of over 5000 µg/mL and an MTDacute ([8]; female Sprague Dawley rats, single oral dose) of 18 mg/kg. The NOAEL ([8]; female, Sprague Dawley, rat, in vivo, po) was 18 mg/kg, the HCT [8, 11] was 49.9% and the MCH [8, 11] was 19.7 pg. For the same compound, the MCHC [8, 11] was 35.9 g/dL, the MCV [8, 11] was 54.8 fL and the PLT [8, 11] was 37.1 10^3/μL. The RBC [8, 11] was 9.1 10^6/μL, the RDWA [8, 11] was 16.2 fL and the WBC [8, 11] was 17.9 10^3/μL. It also gave an HCT ([8]; rats, single oral dose 9 mg/kg) of 42.7%, an MCH ([8]; rats, single oral dose 9 mg/kg) of 19.5 pg and an MCHC ([8]; rats, single oral dose 9 mg/kg) of 36.6 g/dL. For the same compound, the MCV ([8]; rats, single oral dose 9 mg/kg) was 53.3 fL, the PLT ([8]; rats, single oral dose 9 mg/kg) was 35.0 10^3/μL and the RBC ([8]; rats, single oral dose 9 mg/kg) was 8.0 10^6/μL. The RDWA ([8]; rats, single oral dose 9 mg/kg) was 15.9 fL, the WBC ([8]; rats, single oral dose 9 mg/kg) was 15.6 10^3/μL and the “platelet counts versus normal range” value ([8]; rats, single oral dose 9 mg/kg) was “outside the normal range”. The HCT [8, 12] was 31.2%, the MCH [8, 12] was 19.6 pg and the MCHC [8, 12] was 36.6 g/dL. For the same compound, the MCV [8, 12] was 53.5 fL, the PLT [8, 12] was 33.9 10^3/μL and the RBC [8, 12] was 5.9 10^6/μL. For the same compound, the RDWA [8, 12] was 15.7 fL, the WBC [8, 12] was 11.4 10^3/μL and the “abnormal food consumption patterns” value [8, 12] was “not observed”. The “red and white blood cell counts” value [8, 12] was “Slightly reduced”, the Body weight loss ([8]; rats, single oral dose 36 mg/kg, preceding death) was 13.1% and the overt toxicity ([8]; rats, single oral dose 18, 9, or 4.5 mg/kg) was “No overt toxicity, including body weight change or diarrhea, was observed”.
